pIC50: −log10 of the molar value.
Columns and labels:
A-375 = test: Antiproliferative activity against human A375 cells assessed as reduction in cell viability incubated for 72 hrs by MTT assay; format: functional, cell-based; settings: A-375, 72 h
MCF7 = test: cells; settings: Homo sapiens, MCF7, 72 h
HCT-116 = test: Antiproliferative activity against human HCT116 cells assessed as reduction in cell viability incubated for 72 hrs by MTT assay; format: functional, cell-based; settings: HCT-116, 72 h
[1] = target: PI3-kinase p110-delta/p85-alpha (Homo sapiens, UniProt O00329); test: Inhibition of recombinant human full length N-terminal GST-tagged PI3Kdelta (1 to 1044 residues)/PIK3R1 (1 to 724 residues) expressed in baculovirus expression system using PIP2 as substrate incubated for 2 hrs by ADP-Glo assay
A549 [2] = test: cells; settings: Homo sapiens, A549, 72 h
HepG2 = test: cells; settings: Homo sapiens, HepG2, 72 h
HeLa [3] = test: Antiproliferative activity against human HeLa cells assessed as reduction in cell viability incubated for 72 hrs by MTT assay; format: functional, cell-based
[4] = target: Serine/threonine-protein kinase mTOR (Homo sapiens, UniProt P42345); test: Inhibition of recombinant human N-terminal FLAG-tagged mTOR (1362 to end residues) using Ulight-4E-BP1 as substrate incubated for 30 mins by fluorescence assay
[5] = target: Phosphatidylinositol 4,5-bisphosphate 3-kinase catalytic subunit alpha isoform (Homo sapiens, UniProt P42336); test: Inhibition of recombinant human full length N-terminal GST-tagged PI3Kalpha (1 to 1068 residues)/PIK3R1 (1 to 724 residues) expressed in baculovirus expression system using PIP2 as substrate incubated for 1 hr by ADP-Glo assay
HeLa [6] = test: Antitumor activity against human HeLa cells xenografted in BALB/c nude mouse assessed as tumor growth inhibition at 20 mg/kg, ig administered for 30 days measured every 3 days during compound dosing relative to control; format: functional; settings: po, read-out: TGI
[7] = Toxicity in BALB/c mouse xenografted with human A549 cells assessed as reduction in body weight at 20 mg/kg, ig administered for 30 days; format: organism-based; settings: in vivo, po, 720 h
[8] = Toxicity in BALB/c mouse xenografted with human HeLa cells assessed as reduction in body weight at 20 mg/kg, ig administered for 30 days; format: organism-based; settings: in vivo, po, 720 h
A549 [9] = test: Antitumor activity against human A549 cells xenografted in BALB/c nude mouse assessed as tumor growth inhibition at 20 mg/kg, ig administered for 30 days measured every 3 days during compound dosing relative to control; format: functional; settings: A549, po, read-out: TGI

Chain of PI3-kinase p110-delta/p85-alpha (P27986 whole entry, the tested form may be a part): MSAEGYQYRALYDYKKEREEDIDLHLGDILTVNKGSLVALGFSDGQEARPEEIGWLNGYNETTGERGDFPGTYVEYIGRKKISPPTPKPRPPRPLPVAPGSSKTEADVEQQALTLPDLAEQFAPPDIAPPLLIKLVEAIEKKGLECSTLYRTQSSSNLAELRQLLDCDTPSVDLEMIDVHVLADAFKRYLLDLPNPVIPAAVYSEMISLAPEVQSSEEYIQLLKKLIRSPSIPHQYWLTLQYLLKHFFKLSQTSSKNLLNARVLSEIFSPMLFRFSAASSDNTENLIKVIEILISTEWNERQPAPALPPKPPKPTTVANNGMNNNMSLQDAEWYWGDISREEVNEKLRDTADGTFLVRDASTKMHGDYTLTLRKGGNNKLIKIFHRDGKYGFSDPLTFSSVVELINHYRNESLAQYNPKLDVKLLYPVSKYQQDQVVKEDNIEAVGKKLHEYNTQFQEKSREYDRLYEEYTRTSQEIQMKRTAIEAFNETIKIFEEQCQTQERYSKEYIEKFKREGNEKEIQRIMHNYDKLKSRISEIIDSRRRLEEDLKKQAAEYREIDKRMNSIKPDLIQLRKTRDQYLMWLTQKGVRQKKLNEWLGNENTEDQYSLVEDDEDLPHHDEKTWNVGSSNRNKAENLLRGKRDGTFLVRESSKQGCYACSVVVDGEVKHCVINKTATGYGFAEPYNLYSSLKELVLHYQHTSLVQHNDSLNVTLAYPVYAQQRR
Chain of PI3-kinase p110-delta/p85-alpha (O00329 whole entry, the tested form may be a part): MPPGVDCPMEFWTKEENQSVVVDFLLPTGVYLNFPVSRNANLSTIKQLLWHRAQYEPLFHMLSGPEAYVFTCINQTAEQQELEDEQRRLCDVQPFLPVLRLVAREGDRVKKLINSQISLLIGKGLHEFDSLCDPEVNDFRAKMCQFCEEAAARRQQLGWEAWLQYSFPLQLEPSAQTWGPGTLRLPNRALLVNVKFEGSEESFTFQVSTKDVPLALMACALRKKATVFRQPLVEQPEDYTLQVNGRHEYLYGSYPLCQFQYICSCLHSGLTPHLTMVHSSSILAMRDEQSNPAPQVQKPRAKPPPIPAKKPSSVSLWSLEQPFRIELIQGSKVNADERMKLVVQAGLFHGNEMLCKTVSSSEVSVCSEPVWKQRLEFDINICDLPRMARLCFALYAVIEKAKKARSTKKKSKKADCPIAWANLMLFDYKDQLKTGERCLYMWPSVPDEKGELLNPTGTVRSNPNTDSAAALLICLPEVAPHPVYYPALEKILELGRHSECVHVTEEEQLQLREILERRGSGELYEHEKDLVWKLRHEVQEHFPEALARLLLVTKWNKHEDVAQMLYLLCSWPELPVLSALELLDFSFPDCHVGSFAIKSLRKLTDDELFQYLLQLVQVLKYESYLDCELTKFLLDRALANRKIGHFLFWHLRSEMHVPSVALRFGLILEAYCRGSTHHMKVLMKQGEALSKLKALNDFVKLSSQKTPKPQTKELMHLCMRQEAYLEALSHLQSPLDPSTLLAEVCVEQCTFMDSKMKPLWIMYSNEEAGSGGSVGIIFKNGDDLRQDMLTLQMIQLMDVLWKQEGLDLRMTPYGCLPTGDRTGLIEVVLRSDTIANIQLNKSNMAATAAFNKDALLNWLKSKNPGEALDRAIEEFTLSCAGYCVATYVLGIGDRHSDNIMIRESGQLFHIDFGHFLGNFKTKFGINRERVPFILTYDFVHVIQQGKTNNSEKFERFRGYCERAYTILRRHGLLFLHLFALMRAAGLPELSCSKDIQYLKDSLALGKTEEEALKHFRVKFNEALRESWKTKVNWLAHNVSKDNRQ
Chain of Phosphatidylinositol 4,5-bisphosphate 3-kinase catalytic subunit alpha isoform (P42336 whole entry, looked up, the tested form may be a part, canonical isoform): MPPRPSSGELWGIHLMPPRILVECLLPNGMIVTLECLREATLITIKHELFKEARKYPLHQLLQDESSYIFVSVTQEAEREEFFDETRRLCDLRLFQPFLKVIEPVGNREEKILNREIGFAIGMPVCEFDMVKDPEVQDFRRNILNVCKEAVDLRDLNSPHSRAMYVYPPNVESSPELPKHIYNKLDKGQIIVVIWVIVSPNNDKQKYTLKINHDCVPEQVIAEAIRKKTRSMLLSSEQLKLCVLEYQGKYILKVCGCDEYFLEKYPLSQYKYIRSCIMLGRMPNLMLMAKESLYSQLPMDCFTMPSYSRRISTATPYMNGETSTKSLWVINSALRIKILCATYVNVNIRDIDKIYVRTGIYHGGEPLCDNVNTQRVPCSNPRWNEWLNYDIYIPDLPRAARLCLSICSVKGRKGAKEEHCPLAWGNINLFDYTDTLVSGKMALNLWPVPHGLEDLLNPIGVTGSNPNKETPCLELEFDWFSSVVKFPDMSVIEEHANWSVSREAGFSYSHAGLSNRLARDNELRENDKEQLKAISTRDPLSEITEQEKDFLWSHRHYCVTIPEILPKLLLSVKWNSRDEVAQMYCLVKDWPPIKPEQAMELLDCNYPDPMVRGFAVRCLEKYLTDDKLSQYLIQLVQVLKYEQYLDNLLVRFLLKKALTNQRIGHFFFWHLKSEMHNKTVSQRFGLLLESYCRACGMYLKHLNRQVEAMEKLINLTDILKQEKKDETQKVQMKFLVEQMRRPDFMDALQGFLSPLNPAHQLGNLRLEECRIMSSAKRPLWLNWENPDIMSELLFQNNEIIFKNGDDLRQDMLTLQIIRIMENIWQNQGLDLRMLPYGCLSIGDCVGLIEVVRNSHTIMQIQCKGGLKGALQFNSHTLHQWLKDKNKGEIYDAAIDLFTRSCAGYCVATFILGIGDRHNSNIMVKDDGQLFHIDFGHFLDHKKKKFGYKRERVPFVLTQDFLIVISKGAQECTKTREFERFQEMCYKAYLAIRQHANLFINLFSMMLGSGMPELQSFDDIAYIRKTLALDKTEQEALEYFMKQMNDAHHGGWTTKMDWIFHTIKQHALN

Row | Compound | pIC50 (A-375) | pIC50 (MCF7) | pIC50 (HCT-116) | pIC50 [1] | pIC50 (A549 [2]) | pIC50 (HepG2) | pIC50 (HeLa [3]) | pIC50 [4] | pIC50 [5] | inhibition in vivo at 20 mg/kg (HeLa [6]) [%] | Activity [7] | Activity [8] | inhibition in vivo at 20 mg/kg (A549 [9]) [%]
1 | O=C1COc2ccc(-c3cnc4ccccc4c3)cc2N1 | < 4.40 | < 4.40 | < 4.40 | < 6.00 | < 4.40 | 4.58 | < 4.40 | < 6.00 | < 6.00 | – | – | – | –
2 | O=C1COc2ccc(-c3ccc(O)cc3)cc2N1c1ccc(F)cc1 | < 4.40 | 4.52 | < 4.40 | < 6.00 | < 4.40 | < 4.40 | < 4.40 | < 6.00 | < 6.00 | – | – | – | –
3 | Cc1ccc(N2C(=O)COc3ccc(-c4cnc(Cl)c(NS(=O)(=O)c5ccc(F)cc5)c4)cc32)cc1 | 4.41 | 4.49 | 4.46 | 8.43 | 4.51 | 4.40 | 4.49 | 7.71 | 8.39 | – | – | – | –
4 | COc1ccc(N2C(=O)COc3ccc(-c4cnc(Cl)c(NS(=O)(=O)c5ccc(F)cc5)c4)cc32)cc1 | 4.49 | 4.44 | 4.52 | 8.42 | 4.52 | < 4.40 | 5.08 | 7.70 | 9.37 | – | – | – | –
5 | O=C1COc2ccc(-c3cnc(Cl)c(NS(=O)(=O)c4ccc(F)cc4)c3)cc2N1C1CCCCC1 | < 4.40 | < 4.40 | < 4.40 | 7.10 | 4.42 | < 4.40 | 4.84 | 6.54 | 6.95 | – | – | – | –
6 | O=C1COc2ccc(-c3cnc(Cl)c(NS(=O)(=O)c4ccc(F)cc4)c3)cc2N1c1ccc(Cl)cc1 | 4.51 | 4.48 | 4.55 | 8.49 | 4.67 | 4.47 | < 4.40 | 7.85 | 8.70 | – | – | – | –
7 | Cc1ccc(N2C(=O)COc3ccc(-c4cccc(NS(=O)(=O)c5ccc(F)cc5)c4)cc32)cc1 | 4.44 | 4.49 | 4.45 | < 6.00 | < 4.40 | < 4.40 | < 4.40 | < 6.00 | < 6.00 | – | – | – | –
8 | COc1ncc(-c2ccc3c(c2)N(c2ccccc2)C(=O)CO3)cc1NS(=O)(=O)c1ccc(F)cc1 | 4.82 | 5.05 | 4.73 | 7.10 | 5.46 | 4.85 | 5.82 | 7.31 | 6.99 | – | – | – | –
9 | Cn1c(=O)n(-c2ccc(C(C)(C)C#N)cc2)c2c3cc(-c4cnc5ccccc5c4)ccc3ncc21 [DACTOLISIB] | 6.24 | 6.35 | 5.77 | – | 5.97 | 5.39 | 5.93 | – | – | 66.5 | Toxic | Toxic | 56.1
10 | COc1cccc(N2C(=O)COc3ccc(-c4cnc(Cl)c(NS(=O)(=O)c5ccc(F)cc5)c4)cc32)c1 | < 4.40 | < 4.40 | < 4.40 | < 6.00 | 4.49 | < 4.40 | < 4.40 | < 6.00 | < 6.00 | – | – | – | –
11 | O=C1COc2ccc(-c3cccc(NS(=O)(=O)c4ccc(F)cc4)c3)cc2N1C1CCCCC1 | 4.62 | 4.67 | 4.74 | < 6.00 | 4.84 | 4.44 | 4.96 | < 6.00 | < 6.00 | – | – | – | –
12 | O=C1COc2ccc(-c3cnc4ccccc4c3)cc2N1C1CC1 | < 4.40 | 4.53 | < 4.40 | < 6.00 | < 4.40 | < 4.40 | < 4.40 | < 6.00 | < 6.00 | – | – | – | –
13 | O=C1COc2ccc(-c3cnc(Cl)c(NS(=O)(=O)c4ccc(F)cc4)c3)cc2N1c1ccc(F)cc1 | < 4.40 | 4.49 | 4.47 | 8.30 | 4.65 | < 4.40 | < 4.40 | 7.75 | 8.29 | – | – | – | –
14 | Cc1ccc(N2C(=O)COc3ccc(-c4cnc5ccccc5c4)cc32)cc1 | < 4.40 | < 4.40 | < 4.40 | < 6.00 | < 4.40 | < 4.40 | < 4.40 | < 6.00 | < 6.00 | – | – | – | –
15 | O=C1COc2ccc(-c3cccc(NS(=O)(=O)c4ccc(F)cc4)c3)cc2N1 | 4.70 | 4.74 | < 4.40 | < 6.00 | 4.49 | < 4.40 | < 4.40 | < 6.00 | < 6.00 | – | – | – | –
16 | O=C1COc2ccc(-c3cnc4ccccc4c3)cc2N1c1ccc(Cl)cc1 | < 4.40 | < 4.40 | 4.44 | < 6.00 | < 4.40 | 4.49 | < 4.40 | < 6.00 | < 6.00 | – | – | – | –
17 | O=C1COc2ccc(-c3cnc4ccccc4c3)cc2N1C1CCCCC1 | < 4.40 | < 4.40 | < 4.40 | < 6.00 | < 4.40 | < 4.40 | 4.70 | < 6.00 | < 6.00 | – | – | – | –
18 | O=C1COc2ccc(-c3ccc(O)cc3)cc2N1C1CC1 | < 4.40 | 4.48 | < 4.40 | < 6.00 | < 4.40 | 4.49 | < 4.40 | < 6.00 | < 6.00 | – | – | – | –
19 | COc1ncc(-c2ccc3c(c2)N(c2ccc(Cl)cc2)C(=O)CO3)cc1NS(=O)(=O)c1ccc(F)cc1 | 4.62 | 4.56 | 4.72 | 7.74 | 5.08 | 4.75 | 5.32 | 7.90 | 7.66 | – | – | – | –
20 | COc1cccc(N2C(=O)COc3ccc(-c4cnc(OC)c(NS(=O)(=O)c5ccc(F)cc5)c4)cc32)c1 | < 4.40 | < 4.40 | < 4.40 | < 6.00 | 4.95 | < 4.40 | < 4.40 | < 6.00 | < 6.00 | – | – | – | –
21 | O=C1COc2ccc(-c3cnc(Cl)c(NS(=O)(=O)c4ccc(F)cc4)c3)cc2N1C1CC1 | 4.66 | 4.78 | 4.91 | 7.21 | 5.36 | 5.07 | 5.14 | 6.57 | 7.07 | – | – | – | –
22 | O=C1COc2ccc(-c3cnc(Cl)c(NS(=O)(=O)c4ccc(F)cc4)c3)cc2N1c1ccccc1 | 4.43 | < 4.40 | 4.40 | 7.82 | 4.83 | 4.45 | 4.99 | 7.82 | 7.72 | – | – | – | –
23 | CC(C)N1C(=O)COc2ccc(-c3cnc4ccccc4c3)cc21 | 4.41 | 4.64 | 4.63 | < 6.00 | 4.61 | < 4.40 | 4.64 | < 6.00 | < 6.00 | – | – | – | –
24 | O=C1COc2ccc(-c3cnc4ccccc4c3)cc2N1c1ccccc1 | < 4.40 | < 4.40 | < 4.40 | < 6.00 | < 4.40 | < 4.40 | < 4.40 | < 6.00 | < 6.00 | – | – | – | –
25 | COc1cccc(N2C(=O)COc3ccc(-c4cccc(NS(=O)(=O)c5ccc(F)cc5)c4)cc32)c1 | < 4.40 | < 4.40 | < 4.40 | < 6.00 | < 4.40 | < 4.40 | < 4.40 | < 6.00 | < 6.00 | – | – | – | –
26 | COc1ncc(-c2ccc3c(c2)N(C2CCCCC2)C(=O)CO3)cc1NS(=O)(=O)c1ccc(F)cc1 | < 4.40 | 4.52 | < 4.40 | 6.39 | 4.61 | < 4.40 | 5.21 | 6.06 | < 6.00 | – | – | – | –
